Where two headings read alike, the source gives them in different places.
Legend:
Format in all cases: in vivo
[1] = test system: Abutilon theophrasti (ABUTH); experiment: Post-emergence herbicidal action against ABUTH; conditions: visual rating about 3 weeks after treatment vs untreated controls (100% = plants have died, 0% = like control plants)
Outline: (§1)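 Greenhouse plants sprayed at the one-leaf stage, 2–3 weeks after sowing, with WP or EC formulations plus 0.5% additive at 600 l/ha water. Activity rated visually after about 3 weeks versus untreated controls (100% = dead, 0% = like control), at 320 g/ha or lower.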

[2] = test system: Amaranthus retroflexus (AMARE); experiment: Post-emergence herbicidal action against AMARE
Outline: as §1

Setaria viridis (SETVI) [3] = experiment: Pre-emergence herbicidal action against SETVI
Outline: (§2)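 Application rates ran to 320 g/ha or lower, with several dosages tested on the same weeds. The compound, as wettable powder or emulsion concentrate, is sprayed pre-emergence onto soil over sown seeds; greenhouse growth follows, and effect is rated visually after roughly 3 weeks.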

Lolium rigidum (LOLRI) [4] = experiment: Post-emergence herbicidal action against LOLRI; conditions: dosage 320 g/ha
Outline: as §1

Glycine max (GLXMA) = conditions: pre-emergence, crop plant compatibility, in comparison to untreated controls
Outline: (§3)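 Crop injury rated visually in percent against untreated plants roughly 3 weeks after treatment (0% no effect, 100% plants dead). Compounds, as WP or EC with 0.5% additive in 600 l/ha water, were applied to the covering soil right after sowing; greenhouse growth. Suffixes a, b, c denote different dosages.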

[5] = test system: Triticum aestivum (TRZAS); conditions: pre-emergence, 80 g/ha, crop plant compatibility, in comparison to untreated controls
Outline: as §3

Oryza sativa (ORYSA) [6] = conditions: crop plant compatibility
Outline: (§4)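 Foliar application at the one-leaf stage: WP/EC formulation, 0.5% additive, 600 l/ha water. Greenhouse-grown in sandy loam. Endpoint is visual % injury relative to untreated controls at about 3 weeks.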

[7] = test system: Alopecurus myosuroides (ALOMY); experiment: Post-emergence herbicidal action against ALOMY; conditions: visual rating about 3 weeks after treatment vs untreated controls (100% = plants have died, 0% = like control plants)
Outline: as §1

[8] = test system: Matricaria inodora (MATIN); experiment: Pre-emergence herbicidal action against MATIN
Outline: as §2

Viola tricolor (VIOTR) [9] = experiment: Post-emergence herbicidal action against VIOTR
Outline: as §1

[10] = test system: Amaranthus retroflexus (AMARE); experiment: Pre-emergence herbicidal action against AMARE; conditions: visual scoring after about 3 weeks vs untreated controls
Outline: as §2

Setaria viridis (SETVI) [11] = experiment: Post-emergence herbicidal action against SETVI
Outline: as §1

Viola tricolor (VIOTR) [12] = experiment: Pre-emergence herbicidal action against VIOTR
Outline: as §2

[13] = test system: Matricaria inodora (MATIN); experiment: Post-emergence herbicidal action against MATIN
Outline: as §1

[14] = test system: Echinochloa crus-galli (ECHCG); experiment: Post-emergence herbicidal action against ECHCG
Outline: as §1

Avena fatua (AVEFA) = experiment: Post-emergence herbicidal action against AVEFA; conditions: visual rating about 3 weeks after treatment
Outline: as §1

Lolium rigidum (LOLRI) [15] = experiment: Pre-emergence herbicidal action against LOLRI; conditions: dosage 320 g/ha
Outline: as §2

[16] = test system: Polygonum convolvulus (POLCO); experiment: Post-emergence herbicidal action against POLCO; conditions: dosage 320 g/ha
Outline: as §1

[17] = test system: Pharbitis purpurea (PHBPU); experiment: Pre-emergence herbicidal action against PHBPU
Outline: as §2

[18] = test system: Pharbitis purpurea (PHBPU); experiment: Post-emergence herbicidal action against PHBPU
Outline: as §1

[19] = test system: Alopecurus myosuroides (ALOMY); experiment: Pre-emergence herbicidal action against ALOMY; conditions: 320 g/ha; scored visually after about 3 weeks; 100% = plants have died
Outline: as §2

[20] = test system: Verconica persica (VERPE); experiment: Post-emergence herbicidal action against VERPE; conditions: 320 g/ha, VERPE
Outline: as §1

[21] = test system: Polygonum convolvulus (POLCO); experiment: Pre-emergence herbicidal action against POLCO
Outline: as §2

[22] = test system: Echinochloa crus-galli (ECHCG); experiment: Pre-emergence herbicidal action against ECHCG; conditions: dosage 320 g/ha
Outline: as §2

Zea mays (ZEAMX) [23] = conditions: pre-emergence, crop plant compatibility, in comparison to untreated controls
Outline: as §3

Oryza sativa (ORYSA) [24] = conditions: pre-emergence, crop plant compatibility, in comparison to untreated controls
Outline: as §3

Zea mays (ZEAMX) [25] = conditions: for Post-emergence action against ZEAMX in % (crop plant compatibility): 20 g/ha, effect in comparison to untreated controls
Outline: as §4

[26] = test system: Triticum aestivum (TRZAS); conditions: crop plant compatibility, 20 g/ha, effect vs untreated controls
Outline: as §4

[27] = test system: Digitaria sanguinalis (DIGSA); experiment: Pre-emergence herbicidal action against DIGSA; conditions: dosage 320 g/ha
Outline: as §2

[28] = 80 g/ha, visual rating about 3 weeks after treatment vs untreated controls (100% = plants have died, 0% = like control plants)
[29] = 80 g/ha, effect in comparison to untreated controls
[30] = 20 g/ha, effect vs untreated controls

| Pre-emergence action against GLXMA in % (Glycine max (GLXMA); 80 g/ha) | Pre-emergence action against TRZAS in % [5] | Post-emergence action against ORYSA in % (Oryza sativa (ORYSA) [6]; [29]) | Pre-emergence action against ORYSA in % (Oryza sativa (ORYSA) [24]; 80 g/ha) | Pre-emergence action against ORYSA in % (Oryza sativa (ORYSA) [24]; 320 g/ha) | SMILES | Post-emergence action against AMARE in % [2, 28] | Post-emergence action against ALOMY in % ([7]; 320 g/ha) | Pre-emergence action against MATIN in % ([8]; dosage 320 g/ha) | Post-emergence action against VIOTR in % (Viola tricolor (VIOTR) [9]; 320 g/ha) | Pre-emergence action against AMARE in % ([10]; 320 g/ha) | Pre-emergence action against VIOTR in % (Viola tricolor (VIOTR) [12]; 320 g/ha, Viola tricolor) | Post-emergence action against MATIN in % ([13]; dosage 320 g/ha) | Post-emergence action against ECHCG in % ([14]; dosage 320 g/ha) | Pre-emergence action against PHBPU in % ([17]; dosage 320 g/ha) | Post-emergence action against PHBPU in % ([18]; dosage 80 g/ha) | Post-emergence action against PHBPU in % ([18]; dosage 320 g/ha) | Pre-emergence action against ALOMY [19] | Post-emergence action against VERPE in % [20] | Pre-emergence action against POLCO in % ([21]; dosage 320 g/ha) | Pre-emergence action against ECHCG in % [22] | also measured |
| --- | --- | --- | --- | --- | --- | --- | --- | --- | --- | --- | --- | --- | --- | --- | --- | --- | --- | --- | --- | --- | --- |
| 10% | 10% | 0% | – | – | COC(=O)CSc1nn(-c2ccccn2)c(-c2cncc(F)c2)c1Br [Example I-151] | 90% | 80% | 90% | 90% | 100% | 100% | 90% | 90% | 80% | 90% | 90% | 100% | 90% | 90% | 90% | Post-emergence action against ABUTH in % ([1]; 80 g/ha): 80%; Post-emergence action against ABUTH in % ([1]; 320 g/ha): 80%; Post-emergence action against AMARE in % ([2]; 320 g/ha, visual rating about 3 weeks after treatment): 100%; Pre-emergence action against SETVI in % (Setaria viridis (SETVI) [3]; dosage 80 g/ha): 90%; Pre-emergence action against SETVI in % (Setaria viridis (SETVI) [3]; dosage 320 g/ha): 100%; Post-emergence action against LOLRI in % (Lolium rigidum (LOLRI) [4]): 90%; Pre-emergence action against GLXMA in % (Glycine max (GLXMA); 320 g/ha): 20%; Post-emergence action against ALOMY in % ([7]; 80 g/ha): 80%; Pre-emergence action against MATIN in % ([8]; dosage 80 g/ha): 90%; Post-emergence action against VIOTR in % (Viola tricolor (VIOTR) [9]; 80 g/ha): 80%; Pre-emergence action against AMARE in % ([10]; 80 g/ha): 90%; Post-emergence action against SETVI in % (Setaria viridis (SETVI) [11]; dosage 80 g/ha): 90%; Post-emergence action against SETVI in % (Setaria viridis (SETVI) [11]; dosage 320 g/ha): 90%; Post-emergence action against MATIN in % ([13]; dosage 80 g/ha): 80%; Post-emergence action against ECHCG in % ([14]; dosage 80 g/ha): 90%; Post-emergence action against AVEFA in % (Avena fatua (AVEFA); 80 g/ha): 90%; Post-emergence action against AVEFA in % (Avena fatua (AVEFA); 320 g/ha): 90%; Pre-emergence action against LOLRI in % (Lolium rigidum (LOLRI) [15]): 90%; Post-emergence action against POLCO in % [16]: 80%; Pre-emergence action against PHBPU in % ([17]; dosage 80 g/ha): 80% |
| 0% | 0% | 0% | 0% | 10% | COC(=O)[C@H](C)COC(=O)COc1nn(-c2ccnc(Cl)c2)c(-c2ccc(F)nc2)c1Br [III-17] | 80% | – | – | – | 90% | – | – | – | – | 80% | – | – | – | – | – | Pre-emergence action against ZEAMX in % (Zea mays (ZEAMX) [23]; 80 g/ha): 20%; Pre-emergence action against ZEAMX in % (Zea mays (ZEAMX) [23]; 320 g/ha): 20%; Post-emergence action against ZEAMX in % (crop plant compatibility) (Zea mays (ZEAMX) [25]): 20%; Post-emergence action against ZEAMX in % (Zea mays (ZEAMX) [25]; crop plant compatibility, 80 g/ha, effect vs untreated controls): 20%; Post-emergence action against ORYSA in % (Oryza sativa (ORYSA) [6]; [30]): 0%; Post-emergence action against TRZAS in % [26]: 20% |
| 10% | 0% | – | – | – | COC(=O)COc1nn(-c2ncccc2C(F)(F)F)c(-c2cncc(F)c2)c1Br [Example I-206] | – | 80% | 90% | 80% | 90% | 100% | 80% | 80% | 80% | – | 90% | 80% | 80% | 80% | 80% | Pre-emergence action against DIGSA in % [27]: 90%; Pre-emergence action against VIOTR in % (Viola tricolor (VIOTR) [12]; dosage 80 g/ha): 90%; Pre-emergence action against POLCO in % ([21]; dosage 80 g/ha): 80% |
| 0% | 20% | 0% | 0% | 20% | COC(=O)CCOC(=O)COc1nn(-c2ccnc(Cl)c2)c(-c2ccc(F)nc2)c1Br [III-19] | 80% | – | – | – | 80% | – | – | – | – | 80% | – | – | – | – | – | Post-emergence action against ZEAMX in % (crop plant compatibility) (Zea mays (ZEAMX) [25]): 0%; Post-emergence action against ORYSA in % (Oryza sativa (ORYSA) [6]; [30]): 0%; Post-emergence action against TRZAS in % [26]: 20% |

Reference: US20240041042A1, “1-(PYRIDYL)-5-AZINYLPYRAZOLE DERIVATIVES, AND THEIR USE FOR CONTROL OF UNDESIRED PLANT GROWTH” (Bayer Aktiengesellschaft, priority 2020, published 2024)
